Data: patent publication US20260232642A1, “RNA-BINDING MOLECULES WITH A SMALL CORE SCAFFOLD (R-SCORE) AND USES THEREOF” (Max-Planck-Gesellschaft zur Förderung der Wissenschaften …, priority 2022, published 2026)
Where two headings read alike, the source gives them in different places.

Columns and labels:
[1] = tested on: precursor microRNA-17 hairpin (pre-miR-17 hp); test: Differential scanning fluorimetry (DSF), pre-miR-17 hairpin; assay type: binding; details: 60 uM compound, 1 μM hairpin in PBS, Tm of compound minus Tm of DMSO control
Method: (§1) To measure the binding between compounds and precursor microRNA-21 hairpin (pre-miR-21 hp) or precursor microRNA-17 hairpin (pre-miR-17 hp), DSF was performed as previously described with modification (ACS Chem. Biol. 2017, 12, 2, 435-443). Precursor microRNA hairpin was dissolved in PBS and annealed by briefly heating to 95° C. for 3 min and slowly cooling to rt. Assay was performed in duplicates using white qPCR 8-strips (VWR) with a total volume of 10 μL in PBS. The total reaction consisted of 1 μM precursor microRNA hairpin, 1% test compound (DMSO dilution) and 2×SYBR GreenII (Thermo Fisher Scientific). Compounds were incubated with precursor microRNA hairpin at for 10 min at rt, then SYBR GreenII was added to each well, mixed and incubated 10 min at rt. The strips were spined and loaded to the RT-PCR detection system (BIO-RAD CFX Connect), the fluorescence intensity was obtained every 1° C. for 30 s in the range of 20° C. to 80° C.
(§2) The melting temperature (Tm) was determined by the maximum of the negative of the first derivative of the fluorescence vs temperature melting curves. The ΔTm was calculated by the Tm value of compound subtract the Tm value of the DMSO control.

[2] = tested on: precursor microRNA-21 hairpin (pre-miR-21 hp); test: Differential scanning fluorimetry (DSF), pre-miR-21 hairpin; assay type: binding; details: 60 uM compound, 1 μM hairpin in PBS, Tm of compound minus Tm of DMSO control
Method: as §1, §2

Ramos cells = test: MTT assay, Ramos; assay type: cell-based, human; details: 72 h, Burkitt lymphoma cell line, read-out: Cell lines IC50 [μM] Ramos
Method: (§3) MAD-MB-231, MCF-7 and JAR cells were cultured in Dulbecco's modified Eagle's (DMEM) medium supplemented with 10% Fetal Bovine Serum (FBS), 100 u/mL penicillin-streptomycin. Jurkat, Molt-4 and Ramos cells were cultured in Roswell Park Memorial Institute (RPMI) 1640 medium with 10% Fetal Bovine Serum (FBS), 100 u/mL penicillin-streptomycin. All cell lines grown in an incubator with humidified 5% CO2 at 37° C.
(§4) Jurkat, Molt-4 and Ramos cells were collected and seeded into 96-well plates at a density of 8000-10000 per well and treated with compounds. MCF-7, MDA-MB-231 and JAR cells were collected and seeded into 96-well plates at a density of 2000-3000 per well and cultured overnight to adherent before treat with compounds. After exposed to increasing concentrations of compounds for 72 h, the cells in each well were mixed with 20 μL of 5 mg/ml MTT (3-(4,5-dimethylthiazol-2-yl)-2,5-diphenyltetrazolium bromide) for 2 h, then add 50 μL of 20% SDS/0.01 M HCl incubated overnight, and detected the absorbance at a wavelength of 570 nm.
(§5) Inhibition rate was calculated using the equation: […]
(§6) The IC50 values were calculated by using GraphPad Prism 9 software fitting to a dose-response inhibition equation.

Molt-4 cells = test: MTT assay, Molt-4; assay type: cell-based, human; details: acute leukemia cell line, read-out: Cell lines IC50 [μM] Molt-4
Method: as §3, §4, §5, §6

Jurkat cells = test: MTT assay, Jurkat; assay type: cell-based, human; details: 72 h, acute leukemia cell line, read-out: Cell lines IC50 [μM] Jurkat
Method: as §3, §4, §5, §6

MCF-7 cells = test: MTT assay, MCF-7; assay type: cell-based, human; details: breast cancer cell line, read-out: Cell lines IC50 [μM] MCF-7
Method: as §3, §4, §5, §6

MDA-MB-231 cells = test: MTT assay, MDA-MB-231; assay type: cell-based, human; details: breast cancer cell line, read-out: Cell lines IC50 [μM] MDA-MB-231
Method: as §3, §4, §5, §6

JAR cells = test: MTT assay, JAR; assay type: cell-based, human; details: 72 h, choriocarcinoma cell line, read-out: Cell lines IC50 [μM] JAR
Method: as §3, §4, §5, §6

| Compound | ΔTm (pre-miR-17 hp) @60 uM [° C.] [1] [°C] | ΔTm (pre-miR-21 hp) @60 uM [° C.] [2] [°C] | IC50 (Ramos cells; Homo sapiens, Ramos) [µM] | IC50 (Molt-4 cells; Homo sapiens, MOLT-4, 72 h) [µM] | IC50 (Jurkat cells; Homo sapiens, Jurkat) [µM] | IC50 (MCF-7 cells; 72 h) [µM] | IC50 (MDA-MB-231 cells; Homo sapiens, MDA-MB-231, 72 h) [µM] | IC50 (JAR cells) [µM] | IC50 (MDA-MB-231 cells; 72 h) [µM] | IC50 (Ramos cells) [µM] | IC50 (MCF-7 cells; Homo sapiens, MCF7, 72 h) [µM] | IC50 (JAR cells; Homo sapiens) [µM] | IC50 (Molt-4 cells; 72 h) [µM] | IC50 (Jurkat cells) [µM] |
| --- | --- | --- | --- | --- | --- | --- | --- | --- | --- | --- | --- | --- | --- | --- |
| Cc1noc(C)c1-c1ccc(C2CN(C(=O)c3sc4ncccc4c3N)C2C#N)cc1 (stereo not shown) [Compound B4, 1-(3-aminothieno[2,3-b]pyridine-2-carbonyl)-3-(4-(3,5-dimethylisoxazol-4-yl)phenyl) azetidine-2-carbonitrile] | 0 | 0 | 12.4 | 10.6 | 7.3 | 12.5 | > 20 | 5.92 |  |  |  |  |  |  |
| 3-(4-(1H-benzo[d]imidazol-6-yl)phenyl)-1-(3-aminothieno[2,3-b]pyridine-2-carbonyl)-4-(hydroxymethyl)azetidine-2-carbonitrile [Compound A7] | 0 | 0 |  |  |  | > 20 |  | 5.74 | > 20 |  |  |  |  |  |
| Cc1noc(C)c1-c1ccc(C2CN(C(=O)c3sc4ncccc4c3N)C2C#N)cc1 (stereo not shown) [Compound B3, 1-(3-aminothieno[2,3-b]pyridine-2-carbonyl)-3-(4-(3,5-dimethylisoxazol-4-yl)phenyl) azetidine-2-carbonitrile] |  |  |  |  |  | 5.72 |  | 1.28 | 12.5 |  |  |  |  |  |
| CCCN1C(CO)C(c2ccc(-c3ccc(C(F)(F)F)cc3)cc2)C1CNC(=O)c1sc2ncccc2c1N (stereo not shown) [Compound A5, 3-amino-N-((4-(hydroxymethyl)-1-propyl-3-(4′-(trifluoromethyl)-[1,1′-biphenyl]-4-yl)azetidin-2-yl)methyl) thieno[2,3-b]pyridine-2-carboxamide] |  |  | 5.05 | 5.49 | 5.13 |  |  |  |  |  |  |  |  |  |
| CNc1nc(N2CC(c3ccc(-c4c(C)noc4C)cc3)C2C#N)nc2ccccc12 (stereo not shown) [Compound B1, 3-(4-(3,5-dimethylisoxazol-4-yl)phenyl)-1-(4-(methylamino)quinazolin-2-yl) azetidine-2-carbonitrile] | 0 | 0 |  | 7.01 | 6.31 |  | 14.4 |  |  | 7.35 | 9.92 | 1.74 |  |  |
| CNc1nc(N2CC(c3ccc(-c4ccc5nc[nH]c5c4)cc3)C2C#N)nc2ccccc12 (stereo not shown) [Compound B10, 3-(4-(1H-benzo[d]imidazol-6-yl)phenyl)-1-(4-(methylamino)quinazolin-2-yl) azetidine-2-carbonitrile] | 0 | 0 | 8.27 |  |  | 8.24 |  | 4.78 | 10.8 |  |  |  | 12.1 | 11.2 |
| CCCN1C(CO)C(c2ccc(-c3ccc4nc[nH]c4c3)cc2)C1CNC(=O)c1sc2ncccc2c1N (stereo not shown) [Compound A8, N-((3-(4-(1H-benzo[d]imidazol-6-yl)phenyl)-4-(hydroxymethyl)-1-propylazetidin-2-yl)methyl)-3-aminothieno[2,3-b]pyridine-2-carboxamide] |  |  | 26.8 | 8.5 | 19.1 |  |  |  |  |  |  |  |  |  |
| CCCN1C(CO)C(c2ccc(-c3ccc4nc[nH]c4c3)cc2)C1CNC(=O)c1sc2ncccc2c1N (stereo not shown) [Compound A9, N-((3-(4-(1H-benzo[d]imidazol-6-yl)phenyl)-4-(hydroxymethyl)-1-propylazetidin-2-yl)methyl)-3-aminothieno[2,3-b]pyridine-2-carboxamide] | 0 | 0 |  |  |  |  | > 20 |  |  | > 20 | > 20 | 9.56 | 11.4 | > 20 |
| N#CC1C(c2ccc(-c3ccc(C(F)(F)F)cc3)cc2)CN1C(=O)c1sc2ncccc2c1N (stereo not shown) [Compound B7, 1-(3-aminothieno[2,3-b]pyridine-2-carbonyl)-3-(4′-(trifluoromethyl)-[1,1′-biphenyl]-4-yl) azetidine-2-carbonitrile] |  |  | 6.61 | 13.9 | 7.42 |  |  | 1.16 |  |  |  | 1.5 |  |  |
| CNc1nc(N2CC(C3(C(F)(F)F)C=CC(c4ccccc4)=CC3)C2C#N)nc2ccccc12 (stereo not shown) [Compound B6, 1-(4-(methylamino)quinazolin-2-yl)-3-(4 (trifluoromethyl)-[1,1′-biphenyl]-4-yl) azetidine-2-carbonitrile] | 1.25 |  | 1.82 | 4.79 | 5.47 |  | 7.07 |  |  |  | 5.23 | 1.29 |  |  |
| N#CC1C(c2ccc(-c3ccc(C(F)(F)F)cc3)cc2)C(CO)N1C(=O)c1sc2ncccc2c1N (stereo not shown) [Compound A2, 1-(3-aminothieno[2,3-b]pyridine-2-carbonyl)-4-(hydroxymethyl)-3-(4′-(trifluoromethyl)-[1,1 biphenyl]-4-yl) azetidine-2-carbonitrile] | −2 | −2.5 ± 0.5 |  |  |  |  |  | 3.41 |  | 3.8 |  |  | 4.61 | 3.35 |
| CCCN1C(CO)C(c2ccc(-c3ccc(C(F)(F)F)cc3)cc2)C1CNC(=O)c1sc2ncccc2c1N (stereo not shown) [Compound A4, 3-amino-N-((4-(hydroxymethyl)-1-propyl-3-(4′-(trifluoromethyl)-[1,1′-biphenyl]-4-yl)azetidin-2-yl)methyl) thieno[2,3-b]pyridine-2-carboxamide] | −1 | −2 |  |  |  | 5.79 |  | 2.3 | 7.02 |  |  |  |  |  |
| N#CC1C(c2ccc(-c3ccc(C(F)(F)F)cc3)cc2)C(CO)N1C(=O)c1ccc(NC(=O)c2sc3ncccc3c2N)cc1 (stereo not shown) [Compound A1, 1-(1-amino-(3-aminothieno[2,3-b]pyridine-2-carbonyl)phenyl-4-carbonyl)-4-(hydroxymethyl)-3-(4′-(trifluoromethyl)-[1,1′-biphenyl]-4-yl) azetidine-2-carbonitrile] | −3 | −2 | 4.81 | 2.91 | 2.81 |  | 10 |  |  |  | 5.95 | 2.95 |  |  |
| N#CC1C(c2ccc(-c3ccc(C(F)(F)F)cc3)cc2)C(CO)N1C(=O)c1sc2ncccc2c1N (stereo not shown) [Compound A3, 1-(3-aminothieno[2,3-b]pyridine-2-carbonyl)-4-(hydroxymethyl)-3-(4′-(trifluoromethyl)-[1,1′-biphenyl]-4-yl) azetidine-2-carbonitrile] | −6.5 ± 0.5 | −6 | 7.03 |  | 3.73 |  | 18.6 | 9.75 |  |  | 6.22 |  | 10.8 |  |
